This note sets out measurements from PubChem BioAssay (NCI).

Among the test systems are U251 CNS; HOP-62 NSCLC; UACC-257 melanoma; HOP-92 NSCLC; IGROV1 ovarian; SW-620 colon; HCT-15 colon; SK-MEL-28 melanoma; MDA-MB-231 breast.
What all share (assay): NCI anticancer screen, dose series, 48 h

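In this assay, cells in 96-well plates receive the compound at five concentrations for 48 hours. Endpoints are linearly interpolated between the surrounding concentrations. GI50 is the concentration that inhibits growth by half. At the TGI there is no net growth.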

For `N/N=C1\C(=O)N(c2ccc(Cl)cc2Cl)C(=O)C(=O)C1c1nc2ccccc2o1` (stereo not given), the TGI in the assay on U251 CNS, with HOP-62 NSCLC, in the assay on UACC-257 melanoma, in the assay with HOP-92 NSCLC, in the assay with IGROV1 ovarian and with SW-620 colon was more than 100 µM throughout. For the same compound, the TGI in the assay with HCT-15 colon and with SK-MEL-28 melanoma was more than 100 µM throughout.

For `O=C(Nc1ccc(-c2nc(-c3cccc(OCCN4CCOCC4)c3)c(-c3ccnc(Br)c3)[nH]2)cc1)c1ccccc1`, the GI50 is 2.84 µM in the assay on MDA-MB-231 breast; 2.23 µM in the assay on UACC-257 melanoma; 2.01 µM in the assay on HOP-92 NSCLC; 4.61 µM in the assay with IGROV1 ovarian; 2.05 µM in the assay on SW-620 colon; 0.72 µM in the assay with HCT-15 colon. In the assay on SK-MEL-28 melanoma, the GI50 is 1.5 µM. In addition, the TGI with MDA-MB-231 breast is more than 100 µM; in the assay on UACC-257 melanoma it was 6.36 µM; with HOP-92 NSCLC, 8.16 µM; in the assay with IGROV1 ovarian it was more than 100 µM; in the assay with SW-620 colon, 6.38 µM; in the assay on HCT-15 colon, 3.2 µM. The compound further displayed a TGI in the assay with SK-MEL-28 melanoma of 3.94 µM.

Consider `N.N.N.N.N.O=[N+]([O-])[O-].[Co+3].[O-][Cl+3]([O-])([O-])[O-]`, for which the GI50 with U251 CNS, in the assay on HOP-62 NSCLC, with UACC-257 melanoma, with HOP-92 NSCLC, in the assay with IGROV1 ovarian and with SW-620 colon was more than 100 µM throughout. In addition, the GI50 in the assay with HCT-15 colon and in the assay with SK-MEL-28 melanoma was more than 100 µM in each case. Moreover, the TGI with U251 CNS, in the assay with HOP-62 NSCLC, in the assay with UACC-257 melanoma, in the assay on HOP-92 NSCLC, with IGROV1 ovarian and in the assay on SW-620 colon was more than 100 µM in each case. In addition, the TGI in the assay with HCT-15 colon and in the assay with SK-MEL-28 melanoma was more than 100 µM each time.

Take `C1CC2CN(CCCN3CCOCC3)C(C1)O2` (stereo not given): the TGI in the assay on U251 CNS, in the assay with HOP-62 NSCLC, in the assay on MDA-MB-231 breast, with UACC-257 melanoma, in the assay on HOP-92 NSCLC and in the assay with IGROV1 ovarian was more than 100 µM each time. In addition, the TGI with SW-620 colon, in the assay on HCT-15 colon and in the assay on SK-MEL-28 melanoma was more than 100 µM each time.

For the compound `c1ccc(-c2nc(N3CCOCC3)c3c4c(sc3n2)CCCCCC4)nc1`, the GI50 was 4.38 µM with U251 CNS; 9.53 µM in the assay with HOP-62 NSCLC; 7.43 µM in the assay with MDA-MB-231 breast; 10.9 µM in the assay with UACC-257 melanoma; 0.622 µM with HOP-92 NSCLC; 3.16 µM in the assay on IGROV1 ovarian. In addition, the results for the GI50 in the assay with SW-620 colon, in the assay with HCT-15 colon and with SK-MEL-28 melanoma were 8.87 µM, 3.43 µM and 11 µM, respectively. For the same compound, the TGI in the assay with U251 CNS was 17 µM; in the assay with HOP-62 NSCLC it was 24.6 µM; with MDA-MB-231 breast, 25.9 µM; with UACC-257 melanoma, 23.2 µM; with HOP-92 NSCLC, 5.05 µM; in the assay with IGROV1 ovarian, 9.95 µM. The TGI in the assay on SW-620 colon is 21.9 µM; in the assay on HCT-15 colon, 18.6 µM; in the assay on SK-MEL-28 melanoma, 23.2 µM.

`C=CCC1=C(C)C[C@@H]2CCC(=O)C=C12`: the TGI in the assay with U251 CNS, with HOP-62 NSCLC, in the assay on UACC-257 melanoma, with HOP-92 NSCLC, in the assay on IGROV1 ovarian and in the assay with SW-620 colon was more than 100 µM each time. The TGI in the assay on HCT-15 colon and with SK-MEL-28 melanoma was more than 100 µM in each case.

With `COc1ccc(CCn2c(=O)c3ccccc3n(C)c2=O)cc1`, the TGI in the assay with U251 CNS, with HOP-62 NSCLC, in the assay with UACC-257 melanoma, with IGROV1 ovarian, in the assay on SW-620 colon and in the assay with SK-MEL-28 melanoma was more than 100 µM in each case.

On to `NNC(=O)C(=O)N/N=C1\CCC(=O)CC1C(=O)CCC(=O)Nc1ccc(Cl)cc1` (stereo not given), for which the TGI in the assay on U251 CNS, in the assay with UACC-257 melanoma, in the assay with IGROV1 ovarian, in the assay on SW-620 colon, in the assay with HCT-15 colon and with SK-MEL-28 melanoma was more than 100 µM in each case.

`C=CCO/N=C(\OC(=O)c1ccc([N+](=O)[O-])cc1)c1ccccc1`: the TGI in the assay on U251 CNS, in the assay with HOP-62 NSCLC, in the assay on HOP-92 NSCLC, with IGROV1 ovarian, in the assay with SW-620 colon and with HCT-15 colon was more than 100 µM in each case. In the assay with SK-MEL-28 melanoma, the TGI was more than 100 µM.

Consider `CC1=NN(C(=O)c2ccc(Cl)cc2)C(=O)/C1=C/c1ccccc1O`, for which the TGI in the assay on U251 CNS, with HOP-62 NSCLC, in the assay on UACC-257 melanoma, in the assay with HOP-92 NSCLC, with IGROV1 ovarian and with SW-620 colon was more than 100 µM throughout. The TGI with HCT-15 colon and in the assay on SK-MEL-28 melanoma was more than 100 µM each time.

Consider `O=c1ncccn1C1OC(CO)C(O)C1O` (stereo not given), for which the TGI with U251 CNS, in the assay with HOP-92 NSCLC, with IGROV1 ovarian, in the assay on SW-620 colon, in the assay with HCT-15 colon and in the assay with SK-MEL-28 melanoma was more than 100 µM throughout.

Turning to `Cc1cccc(C)c1NC(=O)CCc1nc(=S)[nH][nH]1`, the TGI in the assay on U251 CNS, in the assay on HOP-62 NSCLC, in the assay with HOP-92 NSCLC, in the assay with IGROV1 ovarian, in the assay with SW-620 colon and with HCT-15 colon was more than 100 µM in each case. The compound further had a TGI with SK-MEL-28 melanoma of more than 100 µM.

Consider `NCCOCCOCCNc1nc(-c2ccc(Cl)cc2)nc(N2CCN(c3ccccn3)CC2)n1`, for which the GI50 with MDA-MB-231 breast is 2.55 µM; with UACC-257 melanoma it was 1.87 µM; with HOP-92 NSCLC, 2.36 µM; in the assay on IGROV1 ovarian, 2.81 µM; in the assay on SW-620 colon, 1.75 µM; in the assay on HCT-15 colon, 1.87 µM. Moreover, the GI50 in the assay with SK-MEL-28 melanoma is 1.74 µM. The TGI in the assay on MDA-MB-231 breast amounted to 6.01 µM; in the assay on UACC-257 melanoma it was 3.55 µM; in the assay with HOP-92 NSCLC, 7.57 µM; with IGROV1 ovarian, 7.04 µM; in the assay on SW-620 colon, 3.35 µM; in the assay on HCT-15 colon, 3.85 µM. The TGI in the assay on SK-MEL-28 melanoma came to 3.23 µM.

Turning to `Cc1cc(N(CCC#N)CCC#N)ccc1N=Nc1ccc(Br)cc1`, the TGI with U251 CNS is more than 53 µM; in the assay on HOP-62 NSCLC, 20.9 µM; in the assay on UACC-257 melanoma, more than 100 µM; in the assay with IGROV1 ovarian, more than 57.3 µM; in the assay with SW-620 colon it was more than 100 µM; with HCT-15 colon, more than 100 µM. Also, in the assay with SK-MEL-28 melanoma, the TGI is more than 100 µM.

Turning to `CC1CCSC(N(C(=O)N(C)c2ccccc2)c2ccccc2)=N1` (stereo not given), the TGI in the assay with U251 CNS, in the assay with HOP-62 NSCLC, in the assay on UACC-257 melanoma, in the assay with IGROV1 ovarian, in the assay on SW-620 colon and in the assay with HCT-15 colon was more than 100 µM throughout. This compound also displayed a TGI in the assay with SK-MEL-28 melanoma of more than 100 µM.

`CC(C)CCCC(C)[C@H]1CCC2[C@@H]3CCC4Nc5c(cnn5-c5ccccc5)C[C@]4(C)C3CC[C@@]21C` (stereo not given in full): the TGI in the assay with U251 CNS is more than 100 µM; in the assay on HOP-62 NSCLC it was 45.7 µM; in the assay on UACC-257 melanoma, more than 100 µM; with IGROV1 ovarian it was more than 100 µM; in the assay with SW-620 colon, more than 100 µM; in the assay on HCT-15 colon it was more than 100 µM.

In the case of `CC(C)(C)OC(=O)NCCCn1c2c(c3ccccc3c1=O)C(=O)c1ccccc1-2`, the GI50 is 11.5 µM in the assay with U251 CNS; 11.8 µM with HOP-62 NSCLC; 12.9 µM in the assay on MDA-MB-231 breast; 75.4 µM with UACC-257 melanoma; 12.5 µM in the assay on HOP-92 NSCLC; more than 100 µM with IGROV1 ovarian. Moreover, the GI50 with SW-620 colon and in the assay on HCT-15 colon was more than 100 µM each time. In addition, the TGI in the assay on U251 CNS was 28.3 µM; with HOP-62 NSCLC, 31.3 µM; in the assay with MDA-MB-231 breast, 48.8 µM; in the assay on UACC-257 melanoma it was more than 100 µM; with HOP-92 NSCLC it was 43.5 µM; in the assay with IGROV1 ovarian it was more than 100 µM. The TGI in the assay on SW-620 colon and in the assay on HCT-15 colon was more than 100 µM in each case.

`COc1ccc(C(=O)NNc2nc(Cl)nc(N3CCN(C(c4ccccc4)c4ccccc4)CC3)n2)cc1`: the GI50 in the assay with U251 CNS is 1.8 µM; with HOP-62 NSCLC it was 2.97 µM; in the assay on MDA-MB-231 breast it was 1.94 µM; in the assay on UACC-257 melanoma, 2.84 µM; with HOP-92 NSCLC, 1.61 µM; in the assay with IGROV1 ovarian, 1.67 µM. Further, in the assay on SK-MEL-28 melanoma, the GI50 is 1.84 µM. Also, the TGI with U251 CNS stood at 3.34 µM; in the assay on HOP-62 NSCLC, 10.7 µM; with MDA-MB-231 breast it was 3.68 µM; in the assay on UACC-257 melanoma it was 9.06 µM; with HOP-92 NSCLC, 3.55 µM; with IGROV1 ovarian it was 3.11 µM. The same compound had a TGI with SK-MEL-28 melanoma of 3.76 µM.

As to `CC(=O)[O-].[Mn+3].[O-]c1ccccc1C=NCCNCCN=Cc1ccccc1[O-]`, the GI50 with U251 CNS, in the assay on UACC-257 melanoma, in the assay on IGROV1 ovarian, in the assay with HCT-15 colon and in the assay with SK-MEL-28 melanoma was more than 100 µM throughout. For the same compound, the TGI in the assay with U251 CNS, in the assay with UACC-257 melanoma, with IGROV1 ovarian, in the assay on HCT-15 colon and with SK-MEL-28 melanoma was more than 100 µM in each case.

As for `O=c1[nH]c2ccccc2n1CCCN1CCC(n2c(=O)[nH]c3cc(Cl)ccc32)CC1`, the TGI stood at 36.4 µM in the assay on HOP-62 NSCLC; 37.4 µM in the assay on MDA-MB-231 breast; 30.6 µM in the assay on UACC-257 melanoma; 58.2 µM in the assay with HOP-92 NSCLC; 41.3 µM with IGROV1 ovarian; 39.2 µM in the assay on SW-620 colon. The TGI in the assay with HCT-15 colon was determined as 39.9 µM; in the assay with SK-MEL-28 melanoma it was 31.1 µM.
